From patent US4710578A, “Isothiuronium salts” (Peremartoni Vegyipari Vallalat, priority 1984, dated 1987) come the findings set out here.

In data set [1] the test system is neutrophilic granulocytes, lymphocytes and macrophages. The data set is described as follows: Preliminary rapid test: immunostimulant effect. It is filed as in vivo, CFLP male mice. To be noted: oral, one-tenth of LD50; 24 hours.
For the next data set, the system named is NK-ly-ascites lymphoma. The data set can be described thus: NK-ly-ascites lymphoma in vivo. The arrangement: species or system CFLP male mice. To be noted: for Activity against NK-ly-ascites tumor: concentration below one-tenth of the LD50 value; for Survival rate and lifetime: dose-dependant.
The subject of a further data set is NK-yl ascites tumor. The data set is described as follows: Combinations with known cytostatic agents in NK-ly ascites tumor. To be noted: with cyclophosphamide, carnomustine, degranol, dibromo dulcitol or dibromo mannitol. Type of data set: in vivo, CFLP mice.
Data set [2] deals with neutrophylic granulocytes and limphocytes. To be noted: mouse, in vivo, po.

Consider `C=CCN=C(NC(=N)N)SCC=C` [Example 45, N-(Aminoiminomethyl)-N'-Allyl-S-Allyl-Isothiuronium Bromide], for which, in data set [1], the Immunostimulant effect result is “weak”. Besides, in the data set on NK-ly-ascites lymphoma, the “Activity against NK-ly-ascites tumor” value is on record as “active agains Nk-ly-ascites tumor in a concentration below one-tenth of the LD50 value”; the “Survival rate and lifetime” value was “increase survival rate and lifetime in a dose-dependant manner”. In addition, in the data set with NK-yl ascites tumor, the “Antitumor effect of combination vs cytostatic agent alone” value is recorded as “the antitumor effect was strengthened” and the “Immunodepression of combination vs cytostatic agent alone” value is given as “immunodepression decreased”. The same molecule came in with a Toxic effect in data set [2] of 0. Moreover, the LD50 at 24 h in “in vivo” (ip) was 36 ± 4 mg/kg. This molecule also yielded an LD50 at 24 h in “in vivo” (po) of 380 ± 41 mg/kg.
Consider `C=CCSC(=NC(C)C)NC(=N)N` [Example 21, N-aminoiminomethyl-N'-Isopropyl-S-Allyl-Isothiuronium Chloride], for which, in data set [1], the Immunostimulant effect result is listed as “weak”. The Toxic effect in data set [2] was determined as 0. In addition, the results for the LD50 at 24 h in the data set “in vivo” (ip) and in “in vivo” (po) were 32 ± 4 mg/kg and 280 ± 26 mg/kg, respectively.
Take `C=CCSC(=NC)NC(=N)N` [Example 20, N-Aminoiminomethyl-N'-Methyl-S-Allyl-Isothiuronium Chloride]: the Immunostimulant effect entry in data set [1] is “weak”. In addition, in the data set with NK-ly-ascites lymphoma, the “Activity against NK-ly-ascites tumor” value is “active agains Nk-ly-ascites tumor in a concentration below one-tenth of the LD50 value”; the “Survival rate and lifetime” value was “increase survival rate and lifetime in a dose-dependant manner”. In data set [2], this molecule displayed a Toxic effect of 0. Also, in “in vivo” (ip), the LD50 at 24 h turned out to be 75 ± 6.3 mg/kg. Moreover, the LD50 at 24 h in the data set “in vivo” (po) is 600 ± 54 mg/kg.
As for `CC(C)SC(=N)NC(=N)N` [Example 24, N-aminoiminomethyl-S-isopropyl-isothiuronium bromide], in data set [1], the Immunostimulant effect entry was “medium (Medium effect is observed if the increase of cell number or activity over the control amounts to 20%)”. In data set [2], the Toxic effect is listed as 0. Further, in the data set “in vivo” (po), the LD50 at 24 h came out at 2260 ± 210 mg/kg.
Consider `CCCCSC(=N)NC(=N)N` [Example 25, N-aminoiminomethyl-S-n-butyl-isothiuronium bromide], for which the Immunostimulant effect result in data set [1] is “medium (Medium effect is observed if the increase of cell number or activity over the control amounts to 20%)”. In addition, the Toxic effect in data set [2] came to 0. This molecule also returned an LD50 at 24 h in the data set “in vivo” (po) of 2700 ± 310 mg/kg.
For `C#CCSC(=N)NC(=N)N` [Example 31, N-aminoiminomethyl-S-propargyl-isothuronium bromide], in “in vivo” (po), the LD50 at 24 h came out at 90 mg/kg.
With `CC(C)CCSC(=N)NC(=N)N` [Example 26, N-aminoiminomethyl-S-isoamyl-isothiuronium bromide], the Immunostimulant effect result in data set [1] is listed as “medium (Medium effect is observed if the increase of cell number or activity over the control amounts to 20%)”. In data set [2], this molecule showed a Toxic effect of 0. This molecule also registered an LD50 at 24 h in “in vivo” (po) of 2260 ± 241 mg/kg.
Turning to `CCSC(=N)NC(=N)N` [Example 23, N-aminoiminomethyl-S-ethyl-isothiuronium bromide], in data set [1], the Immunostimulant effect result was “strong (The effect is strong if the increase of the cell number and activity of the immune system is more than 20% higher than the control)”. In addition, in data set [2], the Toxic effect is 0. Also, the LD50 at 24 h in “in vivo” (po) came to 3080 ± 290 mg/kg.
For `CSC(=N)NC(=N)N` [Example 9, N-Aminoiminomethyl-S-Methyl-Isothiuronium Iodide], the Immunostimulant effect entry in data set [1] was “medium (Medium effect is observed if the increase of cell number or activity over the control amounts to 20%)”. Further, the LD50 at 24 h in the data set “in vivo” (po) was found to be 2320 ± 220 mg/kg.
For `N=C(N)NC(=N)SCCCO` [Example 29, N-aminoiminomethyl-S-(3-hydroxy-propyl)-isothiuronium bromide], the Immunostimulant effect entry in data set [1] is recorded as “medium (Medium effect is observed if the increase of cell number or activity over the control amounts to 20%)”. This molecule returned a Toxic effect in data set [2] of 0. Besides, the LD50 at 24 h in the data set “in vivo” (po) was 2860 ± 180 mg/kg.
Consider `CCCSC(=N)NC(=N)N` [Example 10, N-Aminoiminomethyl-S-n-Propyl-Isothuronium Bromide], for which, in data set [1], the Immunostimulant effect result is on record as “medium (Medium effect is observed if the increase of cell number or activity over the control amounts to 20%)”. In addition, the Toxic effect in data set [2] turned out to be 0. Besides, in the data set “in vivo” (po), the LD50 at 24 h amounted to 2800 ± 260 mg/kg.
The corresponding values for `C=C(C)CSC(=N)NC(=N)N` [Example 44, N-(Aminoiminomethyl)-S-Metallyl-Isothiuronium-Bromide] are “medium (Medium effect is observed if the increase of cell number or activity over the control amounts to 20%)”, 0 and 1640 ± 210 mg/kg.
